Here are results for 5 molecules from article PMC11338008, “Development and validation of CYP26A1 inhibition assay for high-throughput screening” (Biotechnology journal, 2024).

Structures are written as SMILES. Entries after “also recorded” stand apart in the source; their conditions may differ.

The test system of the series is CYP26B1, CYP1A2, CYP3A4, CYP2C9, CYP2C19, CYP2D6. The series is described as follows: Selectivity across other P450-Glo CYP assays (heatmap, Figure 5). The following applies: compared with CYP26A1 assay.
Protocol: The CYP26B1 assay was a custom assay prepared as described above except it contained recombinant human CYP26B1 co-expressed with POR in E. coli (Cypex/BioIVT, Dundee, Scotland, UK; catalog # CYP071) in place of the Cyp26a1 sequence. […] The luminescence signal in each well was measured using a ViewLux plate reader.
`CCC(CC)C(c1ccc(Nc2nc3ccccc3s2)cc1)n1cncn1` (centres unmarked) [R115866/Talarozole, Talarozole]: the “activity pattern / selectivity across CYP assays, in words” value is “inhibitory effects in the CYP26A1 assay similar to their activity patterns on CYP26B1, CYP3A4, CYP2C9, and CYP2C19; also recorded: broad-spectrum inhibition across various CYP enzymes; also recorded: significant potency in both CYP26A1/B1 and CYP3A4 assays”.

In the case of `OC(Cn1cncn1)(Cn1cncn1)c1ccc(F)cc1F` [Fluconazole], the “activity pattern / selectivity across CYP assays, in words” value is “inhibitory effects in the CYP26A1 assay similar to their activity patterns on CYP26B1, CYP3A4, CYP2C9, and CYP2C19”.

`CC(C)(C)C(=O)C(Oc1ccc(Cl)cc1)n1cncn1` (centres unmarked) [Triadimefon]: the “activity pattern / selectivity across CYP assays, in words” value was “inhibitory effects in the CYP26A1 assay similar to their activity patterns on CYP26B1, CYP3A4, CYP2C9, and CYP2C19”.

With `CCCOC/C(=N\c1ccc(Cl)cc1C(F)(F)F)n1ccnc1` [Triflumizole], the “activity pattern / selectivity across CYP assays, in words” value is “inhibitory effects in the CYP26A1 assay similar to their activity patterns on CYP26B1, CYP3A4, CYP2C9, and CYP2C19”.

Consider `CCCN(CCOc1c(Cl)cc(Cl)cc1Cl)C(=O)n1ccnc1` [Prochloraz], for which the “activity pattern / selectivity across CYP assays, in words” value is “inhibitory effects in the CYP26A1 assay similar to their activity patterns on CYP26B1, CYP3A4, CYP2C9, and CYP2C19”.
